Where two headings read alike, the source gives them in different places.
Experiments:
[1] = tested on: Mm (BAA-535); test: BDQ potentiation MIC99 microbroth assay, Mm; format: cell-based, Mycobacterium marinum; details: for Fold ∆ of BDQ MIC, Mm: 6-azasteroid fixed at 20 μM, relative to BDQ MIC99 without azasteroid
[2] = tested on: Mtb (CDC1551); test: BDQ potentiation MIC99 microbroth assay, Mtb; format: cell-based, Mycobacterium tuberculosis; details: 6-azasteroid fixed at 20 μM; relative to BDQ MIC99 without azasteroid
[3] = tested on: Mtb; test: MIC of 6-azasteroid alone, Mtb; format: cell-based, Mycobacterium tuberculosis; details: (MIC99 reported as micromolar)
[4] = tested on: THP-1 cells; test: Cytotoxicity assay (Alamar Blue), THP-1; format: cell-based; details: read-out: Mammalian Cell IC50, THP1
[5] = tested on: HepG2 cells; test: Cytotoxicity assay (Alamar Blue), HepG2; format: cell-based, human; details: read-out: Mammalian Cell IC50, HepG2
[6] = tested on: Mtb (CDC1551); test: ROS sensitivity (CellROX Green) with or without cumene hydroperoxide; format: cell-based, Mycobacterium tuberculosis
[7] = tested on: Mtb and Mm; test: BDQ potentiation MIC99 assay, species not given; format: cell-based; details: 6-azasteroid at 20 μM; species not stated
[8] = tested on: Mtb (CDC1551); parameters: method as in PMID 31012313; details: normoxic conditions; cited from earlier work
[9] = tested on: Mm (BAA-535); parameters: method as in PMID 31012313; details: normoxic conditions; cited from earlier work
[10] = tested on: Mtb CDC1551; test: Intracellular ATP levels under BDQ cotreatment; details: 96 h
[11] = tested on: mammalian cells (HepG2 and THP-1); test: Cytotoxicity in mammalian cells, cell line not given; details: read-out: IC50 in mammalian cells
[12] = tested on: Mm; test: MIC of 6-azasteroid alone, Mm; format: cell-based, Mycobacterium marinum; details: (micromolar)
[13] = target: T1, recombinant Mtb 3β-Hsd (Rv1106c) (Mycobacterium tuberculosis, UniProt P9WQP7); format: biochemical; details: 50 μM 6-azasteroid
T1 construct: made in house
T1 sequence (P9WQP7 whole entry): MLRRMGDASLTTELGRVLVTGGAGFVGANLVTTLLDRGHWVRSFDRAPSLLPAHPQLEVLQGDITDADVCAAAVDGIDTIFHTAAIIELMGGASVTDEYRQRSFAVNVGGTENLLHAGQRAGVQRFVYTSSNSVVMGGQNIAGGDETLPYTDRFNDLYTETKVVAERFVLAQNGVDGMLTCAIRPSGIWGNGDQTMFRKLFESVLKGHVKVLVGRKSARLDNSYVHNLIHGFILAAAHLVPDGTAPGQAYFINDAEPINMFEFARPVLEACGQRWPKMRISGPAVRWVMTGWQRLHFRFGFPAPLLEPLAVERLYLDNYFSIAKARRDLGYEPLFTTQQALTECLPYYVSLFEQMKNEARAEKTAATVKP

Compound	Fold ∆ of BDQ MIC, Mtb [2]	Mtb MIC Alone [3]	IC50 ([4]; 72 h)	Fold ∆ of BDQ MIC, Mm [1]	IC50 ([5]; 72 h)	other results
COc1nc2ccc(Br)cc2cc1[C@@H](c1ccccc1)[C@@](O)(CCN(C)C)c1cccc2ccccc12 [bedaquiline, reference compound]	–	–	–	–	–	MIC ([1]; Mycobacterium marinum, BAA535, read-out: Mm bedaquiline minimal inhibitory concentration, alone): 0.085 µM
CC(C)(C)c1ccc(C(C)(C)C)c(NC(=O)C2CCC3C4CNC5=CC(=O)CC[C@]5(C)C4CC[C@]23C)c1 (some centres unmarked) [compound 1]	16 fold	40 µM	17.7 µM	–	–	–
CCCN1CC2C3CCC(C(=O)Nc4cc(C(C)(C)C)ccc4C(C)(C)C)[C@@]3(C)CCC2[C@@]2(C)CCC(=O)C=C12 (some centres unmarked) [compound 2]	8 fold	37 µM	–	9 fold	–	IC50 ([5]; Homo sapiens, HepG2, 72 h): 21 µM; IC50 ([4]; Homo sapiens, THP-1, 72 h): 24 µM; intracellular oxidants after exogenous CHP, 6-azasteroid pretreatment ([6]; 20 μM pretreatment 6 h, then 5 mM CHP 30 min, versus not pretreated): greater accumulation of intracellular oxidants; effect on intracellular ROS levels, 6-azasteroid alone ([6]; 20 μM, 6 h, no peroxide): negligible effect; reduction in BDQ MIC99 [7]: greater than 8 fold; potentiation of the activity of isoniazid and BDQ, Mtb [8]: 8 fold; potentiation of the activity of isoniazid and BDQ, Mm [9]: 8 fold; cellular ATP concentration in combination with BDQ, relative to BDQ treatment ([10]; 6-azasteroid 5 and 20 μM plus BDQ): less than 50%; ATP production, 6-azasteroid alone ([10]; 20 or 5 μM, no BDQ): not greatly affected; IC50 [11]: 25 µM
CC(C)(C)c1ccc(C(C)(C)C)c(NC(=O)C2CCC3C4CNC5CC(=O)CC[C@]5(C)C4CC[C@]23C)c1 (some centres unmarked) [compound 3]	–	10 µM	14.2 µM	–	16.9 µM	–
CCCN1CC2C3CCC(C(=O)Nc4cc(C(F)(F)F)ccc4C(C)(C)C)[C@@]3(C)CCC2[C@@]2(C)CCC(=O)C=C12 (some centres unmarked) [compound 6]	–	–	–	3 fold	71 µM	MIC Alone (Mm) [12]: > 20 µM
C[C@]12CCC3C(CN(CCCF)C4=CC(=O)CC[C@@]43C)C1CCC2C(=O)Nc1cc(C(F)(F)F)ccc1C(F)(F)F (some centres unmarked) [compound 8]	–	–	–	7 fold	> 100 µM	MIC Alone (Mm) [12]: > 20 µM
C[C@]12CCC3C(CN(CCC(F)(F)F)C4=CC(=O)CC[C@@]43C)C1CCC2C(=O)Nc1cc(C(F)(F)F)ccc1C(F)(F)F (some centres unmarked) [compound 9]	–	–	–	4 fold	> 100 µM	MIC Alone (Mm) [12]: > 20 µM
C[C@]12CCC(=O)CC1NCC1C2CC[C@]2(C)C(C(=O)NC34CC5CC(CC(C5)C3)C4)CCC12 (some centres unmarked) [compound 11]	–	> 80 µM	–	6 fold	89.3 µM	–
C[C@]12CCC3C(CNC4=CC(=O)CC[C@@]43C)C1CCC2C(=O)NC(c1ccc(F)cc1)c1ccc(F)cc1 (some centres unmarked) [compound 12]	32 fold	31 µM	24.2 µM	7 fold	31.4 µM	–
CCCN1CC2C3CCC(C(=O)NC(c4ccc(F)cc4)c4ccc(C(F)(F)F)cc4)[C@@]3(C)CCC2[C@@]2(C)CCC(=O)C=C12 (some centres unmarked) [compound 16]	64 fold	> 20 µM	–	–	–	inhibition of 3β-Hsd activity [13]: greater than 50%
C[C@]12CCC(=O)CC1NCC1C2CC[C@]2(C)C(C(=O)NC(c3ccc(F)cc3)c3ccc(C(F)(F)F)cc3)CCC12 (some centres unmarked) [compound 17]	–	20 µM	15.6 µM	–	10.1 µM	–
C[C@]12CCC3C(CNC4=CC(=O)CC[C@@]43C)C1CCC2C(=O)NC(c1ccc(OC(F)F)cc1)c1ccc(OC(F)F)cc1 (some centres unmarked) [compound 22]	> 32 fold	> 20 µM	25.7 µM	–	–	–
CCCN1CC2C3CCC(C(=O)NC(c4ccc(OC(F)F)cc4)c4ccc(OC(F)F)cc4)[C@@]3(C)CCC2[C@@]2(C)CCC(=O)CC12 (some centres unmarked) [compound 24]	–	60 µM	> 100 µM	25.5 fold	–	–
CCCN1CC2C3CCC(C(=O)NC(c4ccc(C(F)(F)F)cc4)c4ccc(C(F)(F)F)cc4)[C@@]3(C)CCC2[C@@]2(C)CCC(=O)CC12 (some centres unmarked) [compound 27]	2 fold	20 µM	> 100 µM	–	–	–
C[C@]12CCC3C(CNC4=CC(=O)CC[C@@]43C)C1CCC2C(=O)NC(c1ccc(OC(F)(F)F)cc1)c1ccc(OC(F)(F)F)cc1 (some centres unmarked) [compound 28]	> 32 fold	> 20 µM	12.8 µM	–	–	–
CC(=O)N1CC2C3CCC(C(=O)NC(c4ccc(OC(F)(F)F)cc4)c4ccc(OC(F)(F)F)cc4)[C@@]3(C)CCC2[C@@]2(C)CCC(=O)CC12 (some centres unmarked) [compound 31]	1 fold	> 80 µM	–	3.5 fold	> 100 µM	–
CCCN1CC2C3CCC(C(=O)NC(c4ccc(OC(F)(F)F)cc4)c4ccc(OC(F)(F)F)cc4)[C@@]3(C)CCC2[C@@]2(C)CCC(=O)C=C12 (some centres unmarked) [compound 36]	–	> 40 µM	> 100 µM	1.6 fold	–	–
CN(C)CCN1CC2C3CCC(C(=O)NC(c4ccc(OC(F)(F)F)cc4)c4ccc(OC(F)(F)F)cc4)[C@@]3(C)CCC2[C@@]2(C)CCC(=O)CC12 (some centres unmarked) [compound 37]	–	5 µM	4.1 µM	–	–	–
C[C@]12CCC3C(CN(CC4CC4)C4CC(=O)CC[C@]34C)C1CCC2C(=O)NC(c1ccc(OC(F)(F)F)cc1)c1ccc(OC(F)(F)F)cc1 (some centres unmarked) [compound 38]	–	80 µM	10 µM	–	–	–
C[C@]12CCC3C(CN(CCCF)C4CC(=O)CC[C@]34C)C1CCC2C(=O)NC(c1ccc(OC(F)(F)F)cc1)c1ccc(OC(F)(F)F)cc1 (some centres unmarked) [compound 41]	–	–	–	5 fold	> 100 µM	MIC Alone (Mm) [12]: > 20 µM
C[C@]12CCC3C(CN(CCC(F)(F)F)C4CC(=O)CC[C@]34C)C1CCC2C(=O)NC(c1ccc(OC(F)(F)F)cc1)c1ccc(OC(F)(F)F)cc1 (some centres unmarked) [compound 42]	–	–	–	1 fold	> 100 µM	MIC Alone (Mm) [12]: > 20 µM
C[C@]12CCC3C(CNC4=CC(=O)CC[C@@]43C)C1CCC2C(=O)Nc1ccc(C(=O)c2ccccc2)cc1 (some centres unmarked) [compound 43]	8 fold	–	–	2 fold	> 100 µM	MIC Alone (Mm) [12]: > 20 µM
C#CCCC(=O)Nc1ccc(C(=O)c2ccc(NC(=O)C3CCC4C5CNC6=CC(=O)CC[C@]6(C)C5CC[C@]34C)cc2)cc1 (stereo partly drawn) [compound 44, 17β-[N-[4-(4-Aminobenzoyl)phenyl]pent-4-ynamide]-6-azaandrost-4-en-3-one]	–	–	–	–	–	BDQ potentiation activity in Mm ([1]; photoaffinity probes): showed BDQ potentiation activity

— article PMC10580313, “A Chemoproteomic Approach to Elucidate the Mechanism of Action of 6-Azasteroids with Unique Activity in Mycobacteria” (ACS Infectious Diseases, 2023)
